Measurements: ChEMBL document CHEMBL3616468, “Spirooxindole-derived morpholine-fused-1,2,3-triazoles: Design, synthesis, cytotoxicity and apoptosis inducing studies” (Eur J Med Chem, 2015)
The source made the active and inactive calls. No cut-off for these calls is given here.

Key:
HeLa = test: Antiproliferative activity against human HeLa cells after 48 hrs by MTT assay; type: functional, cell-based
MCF7 = test: Antiproliferative activity against human MCF7 cells after 48 hrs by MTT assay; type: functional, cell-based; details: MCF7, 48 h
A549 [1] = test: Antiproliferative activity against human A549 cells after 48 hrs by MTT assay; type: functional, cell-based; details: A549, 48 h
DU-145 = test: Antiproliferative activity against human DU145 cells after 48 hrs by MTT assay; type: functional, cell-based; details: DU-145, 48 h
A549 [2] = test: Induction of morphological change in human A549 cells assessed as nucleus shrinkage at cytotoxic IC50 level after 48 hrs by phase contrast microscopic analysis; type: functional, cell-based
A549 [3] = test: Induction of apoptosis in human A549 cells assessed as disruption of mitochondrial membrane potential at cytotoxic IC50 level after 24 hrs by rhodamine-123 staining based spectrofluorometry relative to control; type: functional
A549 [4] = test: Induction of apoptosis in human A549 cells assessed as chromatin condensation at cytotoxic IC50 level after 24 hrs by […] staining based confocal fluorescence microscopic analysis; type: functional, cell-based
A549 [5] = test: Induction of cell cycle arrest in human A549 cells assessed as accumulation at G1 phase at 2 uM after 24 hrs by propidium iodide staining based flow cytometry (reference value: 72.27%); type: functional
A549 [6] = test: Induction of apoptosis in human A549 cells assessed as irregular distribution of chromatin at 1 uM after 24 hrs by acridine orange/ethidium bromide staining based fluorescence microscopic analysis; type: functional, cell-based
A549 [7] = test: Induction of apoptosis in human A549 cells assessed as horseshoe shaped nuclei at cytotoxic IC50 level after 24 hrs by […] staining based confocal fluorescence microscopic analysis; type: functional, cell-based
A549 [8] = test: Induction of cell cycle arrest in human A549 cells assessed as accumulation at S phase at 1 uM after 24 hrs by propidium iodide staining based flow cytometry (reference value: 4.96%); type: functional
A549 [9] = test: Inhibition of cell migration in human A549 cells at cytotoxic IC50 level after 48 hrs by wound healing assay; type: functional
A549 [10] = test: Induction of apoptosis in human A549 cells assessed as extremely condensed chromatin at 0.5 uM after 24 hrs by acridine orange/ethidium bromide staining based fluorescence microscopic analysis; type: functional, cell-based
A549 [11] = test: Induction of morphological change in human A549 cells assessed as cell detachment at cytotoxic IC50 level after 48 hrs by phase contrast microscopic analysis; type: functional, cell-based
A549 [12] = test: Induction of apoptosis in human A549 cells assessed as destructive fragmentation of nuclei at 1 uM after 24 hrs by acridine orange/ethidium bromide staining based fluorescence microscopic analysis; type: functional, cell-based
A549 [13] = test: Induction of apoptosis in human A549 cells assessed as fragmented nuclei at cytotoxic IC50 level after 24 hrs by […] staining based confocal fluorescence microscopic analysis; type: functional, cell-based
A549 [14] = test: Induction of cell cycle arrest in human A549 cells assessed as accumulation at S phase at 2 uM after 24 hrs by propidium iodide staining based flow cytometry (reference value: 4.96%); type: functional
A549 [15] = test: Anticancer activity against human A549 cells assessed as decrease in viable cells at cytotoxic IC50 level after 48 hrs by phase contrast microscopic analysis; type: functional, cell-based
A549 [16] = test: Induction of cell cycle arrest in human A549 cells assessed as accumulation at G2/M phase at 1 uM after 24 hrs by propidium iodide staining based flow cytometry (reference value: 21.85%); type: functional
A549 [17] = test: Induction of apoptosis in human A549 cells assessed as cell membrane blebbing at 0.5 uM after 24 hrs by acridine orange/ethidium bromide staining based fluorescence microscopic analysis; type: functional
A549 [18] = test: Induction of apoptosis in human A549 cells assessed as increase in intracellular reactive oxygen species level at cytotoxic IC50 level after 24 hrs by DCFH-DA staining based spectrofluorometry relative to control; type: functional
A549 [19] = test: Induction of cell cycle arrest in human A549 cells assessed as accumulation at G1 phase at 1 uM after 24 hrs by propidium iodide staining based flow cytometry (reference value: 72.27%); type: functional
A549 [20] = test: Inhibition of cell migration in human A549 cells at cytotoxic IC50 level after 24 hrs by wound healing assay; type: functional
A549 [21] = test: Induction of apoptosis in human A549 cells assessed as extremely condensed chromatin at 2 uM after 24 hrs by acridine orange/ethidium bromide staining based fluorescence microscopic analysis; type: functional, cell-based
A549 [22] = test: Induction of cell cycle arrest in human A549 cells assessed as accumulation at G2/M phase at 2 uM after 24 hrs by propidium iodide staining based flow cytometry (reference value: 21.85%); type: functional
A549 [23] = test: Inhibition of cell migration in human A549 cells at cytotoxic IC50 level after 24 to 48 hrs by wound healing assay; type: functional

N#Cc1ccc(CN2C(=O)C3(Cn4nncc4CO3)c3cc(Cl)ccc32)cc1 (configuration not stated)
IC50 (HeLa): 22.3 µM
IC50 (MCF7): 10.2 µM
IC50 (A549 [1]): 7.94 µM
IC50 (DU-145): 28 µM

CCN1C(=O)C2(Cn3nncc3CO2)c2cc(Cl)ccc21 (configuration not stated)
IC50 (HeLa): > 50 µM
IC50 (MCF7): 28.8 µM
IC50 (A549 [1]): 15.8 µM
IC50 (DU-145): 23.4 µM

CCN1C(=O)C2(Cn3nncc3CO2)c2ccccc21 (configuration not stated)
Activity (A549 [2]): Active
Activity (A549 [3]): 48.2%
Activity (A549 [4]): Active
Activity (A549 [5]): 46.04%
Activity (A549 [6]): Active
Activity (A549 [7]): Active
IC50 (HeLa): 11.2 µM
Activity (A549 [8]): 15.63%
inhibition (INH) (A549 [9]): 56.1%
Activity (A549 [10]): Active
IC50 (MCF7): 8.87 µM
Activity (A549 [11]): Active
Activity (A549 [12]): Active
IC50 (A549 [1]): 1.87 µM
IC50 (DU-145): 19.9 µM
Activity (A549 [13]): Active
Activity (A549 [14]): 16.2%
Activity (A549 [15]): Active
Activity (A549 [16]): 19.77%
Activity (A549 [17]): Active
fold change (FC) (A549 [18]): 2.6
Activity (A549 [19]): 60.21%
inhibition (INH) (A549 [20]): 54.9%
Activity (A549 [21]): Active
Activity (A549 [22]): 35.61%
inhibition (INH) (A549 [23]): 38.1%

CN1C(=O)C2(Cn3nncc3CO2)c2ccccc21 (configuration not stated)
IC50 (HeLa): 48 µM
IC50 (MCF7): 27.7 µM
IC50 (A549 [1]): 20.1 µM
IC50 (DU-145): > 50 µM

O=C1N(Cc2ccccc2)c2ccc(Cl)cc2C12Cn1nncc1CO2 (configuration not stated)
IC50 (HeLa): 15.1 µM
IC50 (MCF7): 16.5 µM
IC50 (A549 [1]): 12.9 µM
IC50 (DU-145): 33.3 µM

O=C1N(Cc2ccc(Br)cc2)c2ccc(Cl)cc2C12Cn1nncc1CO2 (configuration not stated)
IC50 (HeLa): > 50 µM
IC50 (MCF7): 31.6 µM
IC50 (A549 [1]): 23.4 µM
IC50 (DU-145): > 50 µM

O=C1N(Cc2ccc(Br)cc2)c2ccc(Br)cc2C12Cn1nncc1CO2 (configuration not stated)
Activity (A549 [2]): Active
Activity (A549 [3]): Active
Activity (A549 [4]): Active
Activity (A549 [7]): Active
IC50 (HeLa): 12 µM
IC50 (MCF7): 6.29 µM
Activity (A549 [11]): Active
IC50 (A549 [1]): 4.26 µM
IC50 (DU-145): 8.14 µM
Activity (A549 [13]): Active
Activity (A549 [15]): Active
fold change (FC) (A549 [18]): 2.3
inhibition (INH) (A549 [23]): 38.1%

Cc1ccc2c(c1)C1(Cn3nncc3CO1)C(=O)N2C (configuration not stated)
IC50 (HeLa): 10.2 µM
IC50 (MCF7): 9.66 µM
IC50 (A549 [1]): 7.41 µM
IC50 (DU-145): 24 µM

COc1cccc2c1C(=O)c1c(O)c3c(c(O)c1C2=O)C[C@@](O)(C(=O)CO)C[C@@H]3O[C@H]1C[C@H](N)[C@H](O)[C@H](C)O1 [DOXORUBICIN]
IC50 (HeLa): 1.26 µM
IC50 (MCF7): 1.05 µM
IC50 (DU-145): 1.91 µM

O=C1N(Cc2ccccc2)c2ccccc2C12Cn1nncc1CO2 (configuration not stated)
IC50 (HeLa): > 50 µM
IC50 (MCF7): 17.8 µM
IC50 (A549 [1]): 10.5 µM
IC50 (DU-145): > 50 µM

CN1C(=O)C2(Cn3nncc3CO2)c2cc(F)ccc21 (configuration not stated)
IC50 (HeLa): > 50 µM
IC50 (MCF7): > 50 µM
IC50 (A549 [1]): > 50 µM
IC50 (DU-145): > 50 µM

CCN1C(=O)C2(Cn3nncc3CO2)c2cc(Br)ccc21 (configuration not stated)
IC50 (HeLa): > 50 µM
IC50 (MCF7): > 50 µM
IC50 (A549 [1]): > 50 µM
IC50 (DU-145): > 50 µM

CCN1C(=O)C2(Cn3nncc3CO2)c2cc(F)ccc21 (configuration not stated)
IC50 (HeLa): > 50 µM
IC50 (MCF7): > 50 µM
IC50 (A549 [1]): > 50 µM
IC50 (DU-145): > 50 µM

O=C1N(Cc2ccccc2)c2ccc(Br)cc2C12Cn1nncc1CO2 (configuration not stated)
IC50 (HeLa): 31.5 µM
IC50 (MCF7): 29.5 µM
IC50 (A549 [1]): 14.8 µM
IC50 (DU-145): 49 µM

O=C1N(Cc2ccc(Br)cc2)c2ccccc2C12Cn1nncc1CO2 (configuration not stated)
IC50 (HeLa): 15.5 µM
IC50 (MCF7): 13.5 µM
IC50 (A549 [1]): 14.5 µM
IC50 (DU-145): 26.3 µM

CN1C(=O)C2(Cn3nncc3CO2)c2cc(Cl)ccc21 (configuration not stated)
IC50 (HeLa): > 50 µM
IC50 (MCF7): 35.5 µM
IC50 (A549 [1]): > 50 µM
IC50 (DU-145): > 50 µM

CN1C(=O)C2(Cn3nncc3CO2)c2cc(Br)ccc21 (configuration not stated)
IC50 (HeLa): > 50 µM
IC50 (MCF7): > 50 µM
IC50 (A549 [1]): > 50 µM
IC50 (DU-145): > 50 µM

N#Cc1ccc(CN2C(=O)C3(Cn4nncc4CO3)c3ccccc32)cc1 (configuration not stated)
IC50 (HeLa): 21.4 µM
IC50 (MCF7): 17.2 µM
IC50 (A549 [1]): 12.6 µM
IC50 (DU-145): 20.4 µM

O=c1[nH]cc(F)c(=O)[nH]1 [FLUOROURACIL]
IC50 (HeLa): 8.32 µM
IC50 (A549 [1]): 7.24 µM
IC50 (DU-145): 6.07 µM

O=C1N(Cc2ccccc2)c2ccc(F)cc2C12Cn1nncc1CO2 (configuration not stated)
IC50 (HeLa): > 50 µM
IC50 (MCF7): 35.9 µM
IC50 (A549 [1]): 19.9 µM
IC50 (DU-145): 27.5 µM

Cc1ccc2c(c1)C1(Cn3nncc3CO1)C(=O)N2Cc1ccccc1 (configuration not stated)
IC50 (HeLa): 18.2 µM
IC50 (MCF7): 19.9 µM
IC50 (A549 [1]): 14.5 µM
IC50 (DU-145): 19.7 µM

O=C1N(Cc2ccc(Br)cc2)c2ccc(F)cc2C12Cn1nncc1CO2 (configuration not stated)
IC50 (HeLa): 14.6 µM
IC50 (MCF7): 8.31 µM
IC50 (A549 [1]): 4.36 µM
IC50 (DU-145): 37.1 µM
